The values that follow come from patent publication US10399966B2, “Compounds for treatment of trypanosomes and neurological pathogens and uses thereof” (The University of North Carolina at Chapel Hill, priority 2016, dated 2019).

In one data set the test system is human hepatocytes HepG2. Briefly: Cytotoxicity against HepG2 cells. The note with it: for EC50: Homo sapiens, HepG2, read-out: HepG2 EC50; for EC90: read-out: HepG2 EC90, concentration required to inhibit growth by 90%, human hepatocytes.
Data set [1] relates to human lymphocytes CRL-8155. Briefly: Cytotoxicity against CRL-8155 cells. The note with it: human lymphoblasts; for EC50: read-out: CRL-8155 EC50, concentration required to inhibit growth by 50%; for EC90: read-out: CRL-8155 EC90, concentration required to inhibit growth by 90%.
Protocol: The selectivity of each compound for the parasite over each of the two cell lines was calculated.
Data set [2] can be described thus: Distribution between mouse plasma and brain (brain penetration, ip). The format is in vivo. Conditions: for Brain/plasma ratio / [compound]Brain / [compound]Plasma: Table 14, mice, single ip dose 5 mg/kg, one hour post-dose; for [compound]Brain / [compound]Plasma: ± SEM of 3 mice (compound 3: 6 mice); for Kp at 1 h / concentration at 1 h: mouse, intraperitoneal, 5 mg/kg; for Kp at 1 h: brain and plasma, read-out: Average brain/plasma ratio. As for the experimental part: For distribution of compounds between mouse plasma and brain, mice (in groups of 3) were injected with test compounds (5 mg/kg ip) and sacrificed at the indicated times for collection of plasma and brain. Compound was dissolved in 0.4 mL of dosing solution (7% Tween 80, 3% ethanol, 5% DMSO, 0.9% saline) for ip injections. The brains were weighed and immediately frozen, then later homogenized in acetonitrile using a Dounce homogenizer. Prior to animal studies, recovery of test compound was carried out by adding a known amount to a mouse brain in the test extraction solvent and performing the homogenization. Compound recovery was determined by liquid chromatography/tandem mass spectrometry analysis relative to a standard compound amount. Blood was taken from the same mice in heparinized capillary tubes (Fisherbrand) for determination of compound concentration in plasma. The concentration of compound in the brain was obtained by dividing the moles of compound in the brain by the brain volume (obtained from the brain weight assuming 1 g is 1 mL) and correcting for the brain vasculature volume of 2.5% by weight.
Brain penetration studies (Table 14) were initially performed upon compounds 1, 2, and 3, but were expanded to include other compounds in order to explore the SAR of brain penetration. Groups of three mice were given single 5 mg/kg ip doses of the test compounds and were sacrificed 1 h post-dose.

The next data set concerns Trypanosoma cruzi. Nature of the data set: Efficacy against T. cruzi in vitro. The format is cell-based. Conditions: Trypanosoma cruzi, Table 10; for EC50: read-out: T.cruzi EC50; for EC90: read-out: T.cruzi EC90.
The next data set relates to T. b. brucei. Nature of the data set: In vitro antitrypanosomal activity against T. brucei (growth inhibition). Format: cell-based, Trypanosoma brucei. Conditions: Trypanosoma brucei; for EC90: read-out: T. brucei EC90. In short, it runs like this:
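Dose-response EC50 against T. brucei parasites with 0.4% DMSO final, 48 h at 37 °C; parasite density quantified by ATP luminescence (CellTiter-Glo).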

The mark [3] stands for this setting: Table 11, read-out: T. b. brucei EC50.
Where [4] appears, read: Table 9, read-out: T. brucei EC50.
Setting [5] is: brain, Table 8, groups of 3 mice (compound 3: ± SEM of 6 mice), read-out: Average [compound] brain.
[6] abbreviates: plasma, Table 8, groups of 3 mice (compound 3: ± SEM of 6 mice), read-out: Average [compound] plasma.
Where [7] appears, read: Table 8, read-out: T. brucei EC50.

Like-named read-outs stand apart in the source and are kept apart here.

As for `O=C(Nc1ccc2sc(-c3cccc(F)c3F)nc2c1)N1CCCC1` [Compound 5, 2-(2,3-Difluorophenyl)-5-(N-pyrrolidylamido)benzothiazole], the melting point lay within 194 to 195 °C. In addition, in the data set on human hepatocytes HepG2, the EC50 was more than 50000 nM and the EC90 was more than 50000 nM. Further, in data set [1], the EC50 is more than 50000 nM and the concentration for an effect of 90% (EC90) was more than 50000 nM. Also, in data set [2], the Brain/plasma ratio is given as 1.76 ± 0.032, the “[compound]Brain” value turned out to be 2.31 ± 0.746 µM and the “[compound]Plasma” value was 1.3 ± 0.406 µM. Besides, the Kp at 1 h in data set [2] (Table 7, groups of 3 mice) stood at 1.76 ± 0.055. The concentration at 1 h in data set [2] (brain, Table 7, groups of 3 mice, read-out: Average [compound] brain) turned out to be 2310 ± 1290 nM. Further, in data set [2] (plasma, Table 7, groups of 3 mice, read-out: Average [compound] plasma), the concentration at 1 h was 1300 ± 703 nM. Besides, in the data set with Trypanosoma cruzi, the half-maximal effective concentration (EC50) was 578 nM and the EC90 was determined as 665 nM. Moreover, in the data set with T. b. brucei (Table 7, read-out: T. brucei EC50), the EC50 turned out to be 183 nM. Moreover, in the data set with T. b. brucei (setting [3]), the EC50 was 183 nM. The EC50 in the data set with T. b. brucei (setting [4]) was found to be 183 nM. In addition, the EC90 in the data set on T. b. brucei (Table 9) was found to be 394 nM.

Take `O=C(Nc1ccc2sc(-c3ccc(F)c(F)c3)nc2c1)N1CCC(F)(F)C1` [Compound 9, 2-(3,4-Difluorophenyl)-5-(3,3-difluoro-N-pyrrolidylamido)benzothiazole]: the melting point lay in the range of 227 to 228 °C. In addition, in the data set with human hepatocytes HepG2, the EC50 is more than 50000 nM and the EC90 was more than 50000 nM. Further, in data set [1], the EC50 is more than 50000 nM and the EC90 was more than 50000 nM. In data set [2], the Brain/plasma ratio was determined as 7.92 ± 0.693, the “[compound]Brain” value amounted to 21.7 ± 1.96 µM and the “[compound]Plasma” value came out at 2.81 ± 0.452 µM. In addition, the Kp at 1 h in data set [2] (Table 8, groups of 3 mice) amounted to 7.92 ± 1.2. Besides, in data set [2] (setting [5]), the concentration at 1 h came out at 21700 ± 3400 nM. In addition, the concentration at 1 h in data set [2] (setting [6]) was found to be 2810 ± 784 nM. Also, the EC50 in the data set on T. b. brucei (setting [7]) is 934 nM. Further, in the data set on T. b. brucei (setting [3]), the EC50 is 934 nM. In addition, the EC50 with T. b. brucei (setting [4]) is 934 nM. Further, the EC90 in the data set with T. b. brucei (Table 9) is 1660 nM.

As for `O=C(Nc1ccc2sc(-c3ccc(F)c(F)c3)nc2c1)N1CCCCC1` [Compound 12, 2-(3,4-Difluorophenyl)-5-(N-piperidylamido)benzothiazole], the melting point lay in the range of 232 to 233 °C. Besides, in the data set with human hepatocytes HepG2, the EC50 was more than 50000 nM and the EC90 is more than 50000 nM. Moreover, in data set [1], the EC50 was more than 50000 nM and the EC90 was more than 50000 nM. In data set [2], the Brain/plasma ratio was 0.510 ± 0.023, the “[compound]Brain” value was determined as 1.29 ± 0.156 µM and the “[compound]Plasma” value amounted to 2.52 ± 0.185 µM. The Kp at 1 h in data set [2] (Table 8, groups of 3 mice) came to 0.51 ± 0.04. Moreover, in data set [2] (setting [5]), the concentration at 1 h amounted to 1290 ± 270 nM. Also, the concentration at 1 h in data set [2] (setting [6]) was 2520 ± 320 nM. Besides, in the data set on Trypanosoma cruzi, the EC50 worked out at 429 nM and the EC90 came out at 912 nM. In the data set with T. b. brucei (setting [7]), the EC50 worked out at 223 nM. For the same molecule, the EC50 with T. b. brucei (setting [3]) amounted to 223 nM. Also, the concentration for a half-maximal effect (EC50) with T. b. brucei (setting [4]) is 223 nM. The EC90 in the data set with T. b. brucei (Table 9) came to 282 nM.

Consider `O=C(Nc1ccc2sc(-c3ccc(F)c(F)c3)nc2c1)N1CCC(F)CC1` [Compound 13, 2-(3,4-Difluorophenyl)-5-(4-fluoro-N-piperidylamido)benzothiazole], for which the melting point lay within 231.5 to 232 °C. In the data set on human hepatocytes HepG2, the EC50 was more than 50000 nM and the EC90 is more than 50000 nM. Moreover, in data set [1], the EC50 is more than 50000 nM and the EC90 was more than 50000 nM. For the same molecule, in data set [2], the Brain/plasma ratio came out at 1.01 ± 0.081, the “[compound]Brain” value was found to be 2.52 ± 0.248 µM and the “[compound]Plasma” value stood at 2.51 ± 0.203 µM. Also, the Kp at 1 h in data set [2] (Table 8, groups of 3 mice) is 1.01 ± 0.14. Moreover, in data set [2] (setting [5]), the concentration at 1 h was 2530 ± 430 nM. Moreover, the concentration at 1 h in data set [2] (setting [6]) was 2510 ± 352 nM. In the data set with Trypanosoma cruzi, the EC50 came out at 1800 nM and the EC90 was 1990 nM. In addition, the concentration for a half-maximal effect (EC50) with T. b. brucei (setting [7]) was 341 nM. Moreover, the EC50 in the data set with T. b. brucei (setting [3]) was found to be 341 nM. Further, the EC50 in the data set on T. b. brucei (setting [4]) is 341 nM. For the same molecule, in the data set on T. b. brucei (Table 9), the EC90 turned out to be 596 nM.

On to `O=C(Nc1ccc2sc(-c3ccccc3)nc2c1)c1cccs1` [Compound 18, 2-Phenyl-5-(2-thienylamido)benzothiazole], for which the melting point came to 256 °C. For the same molecule, in the data set on human hepatocytes HepG2, the EC50 was more than 50000 nM and the EC90 was more than 50000 nM. Moreover, in data set [1], the EC50 was more than 50000 nM and the EC90 was more than 50000 nM. Besides, in the data set with T. b. brucei (setting [3]), the EC50 is 882 nM. The EC50 with T. b. brucei (setting [4]) was 882 nM. The concentration for an effect of 90% (EC90) in the data set on T. b. brucei (Table 9) came out at 2130 nM.

Turning to `O=C(Nc1ccc2sc(-c3ccc(F)cc3)nc2c1)N1CCCC1` [Compound 26, 2-(4-Fluorophenyl)-5-(N-pyrrolidylamido)benzothiazole], the melting point is 211 to 213 °C. Also, in the data set on human hepatocytes HepG2, the EC50 is more than 50000 nM and the EC90 is more than 50000 nM. Also, in data set [1], the EC50 is more than 50000 nM and the EC90 is more than 50000 nM. Besides, in the data set with Trypanosoma cruzi, the EC50 turned out to be 666 nM and the EC90 was 802 nM. In addition, the EC50 with T. b. brucei (setting [3]) stood at 375 nM. The EC50 with T. b. brucei (setting [4]) was 375 nM. Further, in the data set on T. b. brucei (Table 9), the concentration for an effect of 90% (EC90) stood at 895 nM.

As for `O=C(Nc1ccc2sc(-c3ccc(F)cc3)nc2c1)N1CCCCC1` [Compound 27, 2-(4-Fluorophenyl)-5-(N-piperidylamido)benzothiazole], the melting point is 227 to 229 °C. In the data set on human hepatocytes HepG2, the EC50 is more than 50000 nM and the EC90 was more than 50000 nM. Further, in data set [1], the EC50 is more than 50000 nM and the EC90 was more than 50000 nM. Moreover, in the data set with Trypanosoma cruzi, the EC50 came to 1670 nM and the EC90 came to 1950 nM. Further, the EC50 in the data set with T. b. brucei (setting [3]) was determined as 427 nM. In addition, in the data set with T. b. brucei (setting [4]), the EC50 amounted to 427 nM. Also, in the data set on T. b. brucei (Table 9), the EC90 was determined as 737 nM.

Consider `O=C(Nc1ccc2sc(-c3ccccc3F)nc2c1)N1CCCC1` [Compound 32, 2-(2-Fluorophenyl)-5-(N-pyrrolidylamido)benzothiazole], for which the melting point lay within 207 to 208 °C. In the data set on human hepatocytes HepG2, the EC50 is more than 50000 nM and the EC90 was more than 50000 nM. Also, in data set [1], the EC50 was more than 50000 nM and the EC90 is more than 50000 nM. In the data set with Trypanosoma cruzi, the EC50 stood at 1230 nM and the EC90 was 1990 nM. In addition, the EC50 with T. b. brucei (setting [3]) worked out at 983 nM. Besides, the EC50 in the data set on T. b. brucei (setting [4]) came to 983 nM. The EC90 in the data set on T. b. brucei (Table 9) was determined as 1240 nM.

With `O=C(Nc1ccc2sc(-c3ccccc3F)nc2c1)N1CCCCC1` [Compound 33, 2-(2-Fluorophenyl)-5-(N-piperidylamido)benzothiazole], the melting point is 213 to 215 °C. In the data set with human hepatocytes HepG2, the EC50 is more than 50000 nM and the EC90 was more than 50000 nM. In data set [1], the EC50 was more than 50000 nM and the EC90 is more than 50000 nM. In the data set with Trypanosoma cruzi, the EC50 amounted to 843 nM and the concentration for an effect of 90% (EC90) turned out to be 1120 nM. Moreover, in the data set with T. b. brucei (setting [3]), the EC50 was 935 nM. Further, the EC50 in the data set with T. b. brucei (setting [4]) was 935 nM. For the same molecule, the EC90 in the data set on T. b. brucei (Table 9) is 1140 nM.
